Assay results as given in ChEMBL document CHEMBL5620419, “Discovery of new Lenalidomide derivatives as potent and selective GSPT1 degraders” (Eur J Med Chem, 2023).
One block for each molecule: values may come before it. Calls of active or inactive are those of the source. No cut-off for these calls is given here.

Assays:
U-937 [1] = assay: Induction of cell cycle arrest in human U-937 cells assessed as accumulation of cells at G0/G1 phase at 10 nM measured after 24 hrs by propidium iodide staining based flow cytometry analysis (reference value: 61.09%); type: functional
[2] = Downregulation of AIMP2 level in human U-937 cells assessed as fold change at 0.1 uM measured after 6 hrs; type: functional
U-937 [3] = assay: Induction of apoptosis in human U-937 cells assessed as late apoptotic cells at 30 nM measured after 24 hr by Annexin V-FITC/7AAD staining based flow cytometry (reference value: 1.49%); type: functional
[4] = AUC (0 to t) in oral dosed Sprague-Dawley rat; type: ADME, organism-based; conditions: in vivo
U-937 [5] = assay: Induction of apoptosis in human U-937 cells assessed as late apoptotic cells at 10 nM measured after 24 hr by Annexin V-FITC/7AAD staining based flow cytometry (reference value: 1.49%); type: functional
U-937 [6] = assay: Induction of cell cycle arrest in human U-937 cells assessed as accumulation of cells at S phase at 30 nM measured after 24 hrs by propidium iodide staining based flow cytometry analysis (reference value: 6.38%); type: functional
[7] = target: T1, Protein cereblon/Eukaryotic peptide chain release factor GTP-binding subunit ERF3A (Homo sapiens) (UniProt Q96SW2+P15170); assay: PROTAC activity at CRBN/GSPT1 in human U-937 cells assessed as degradation of GSPT1 at 100 nM measured after 4 to 24 hrs by Western blot analysis; type: cell-based; conditions: time 4-24 hrs
T1 sequence (P15170 whole entry, looked up): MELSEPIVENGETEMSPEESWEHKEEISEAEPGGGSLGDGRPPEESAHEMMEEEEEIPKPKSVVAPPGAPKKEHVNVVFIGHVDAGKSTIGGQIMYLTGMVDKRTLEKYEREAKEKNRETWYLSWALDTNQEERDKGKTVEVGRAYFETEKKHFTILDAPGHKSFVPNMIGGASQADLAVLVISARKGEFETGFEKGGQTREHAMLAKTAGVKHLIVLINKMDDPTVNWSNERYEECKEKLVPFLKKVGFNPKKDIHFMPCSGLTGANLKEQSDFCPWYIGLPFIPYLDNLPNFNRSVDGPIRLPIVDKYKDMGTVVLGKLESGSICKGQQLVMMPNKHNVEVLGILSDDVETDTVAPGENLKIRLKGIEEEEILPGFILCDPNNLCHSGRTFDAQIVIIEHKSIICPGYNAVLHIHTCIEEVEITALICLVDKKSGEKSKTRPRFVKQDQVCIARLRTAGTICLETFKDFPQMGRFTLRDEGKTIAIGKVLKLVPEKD
T1 sequence (Q96SW2 whole entry, looked up): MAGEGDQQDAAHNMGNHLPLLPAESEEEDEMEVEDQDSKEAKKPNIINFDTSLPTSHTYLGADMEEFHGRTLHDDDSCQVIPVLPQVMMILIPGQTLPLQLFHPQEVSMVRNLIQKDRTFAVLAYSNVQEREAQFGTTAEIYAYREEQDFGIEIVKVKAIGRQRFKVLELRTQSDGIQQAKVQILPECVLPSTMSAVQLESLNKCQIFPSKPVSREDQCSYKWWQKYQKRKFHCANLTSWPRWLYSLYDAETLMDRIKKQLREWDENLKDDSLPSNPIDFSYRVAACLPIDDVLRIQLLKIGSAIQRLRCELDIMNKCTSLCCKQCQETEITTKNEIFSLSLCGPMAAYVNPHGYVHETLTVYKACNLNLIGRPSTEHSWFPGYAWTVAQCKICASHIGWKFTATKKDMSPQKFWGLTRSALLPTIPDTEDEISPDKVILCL

U-937 [8] = assay: Induction of cell cycle arrest in human U-937 cells assessed as accumulation of cells at G0/G1 phase at 30 nM measured after 24 hrs by propidium iodide staining based flow cytometry analysis (reference value: 61.09%); type: functional
U-937 [9] = assay: Induction of apoptosis in human U-937 cells assessed as necrotic cells at 10 nM measured after 24 hr by Annexin V-FITC/7AAD staining based flow cytometry (reference value: 3.52%); type: functional
[10] = Downregulation of SRP72 level in human U-937 cells assessed as fold change at 0.1 uM measured after 6 hrs; type: functional
[11] = Half life in ip dosed Sprague-Dawley rat; type: ADME, organism-based; conditions: in vivo
U-937 [12] = assay: Induction of cell cycle arrest in human U-937 cells assessed as accumulation of cells at G2/M phase at 30 nM measured after 24 hrs by propidium iodide staining based flow cytometry analysis (reference value: 32.33%); type: functional
[13] = target: T1, Protein cereblon/Eukaryotic peptide chain release factor GTP-binding subunit ERF3A (Homo sapiens); assay: PROTAC activity at CRBN/GSPT1 in human MV4-11 cells assessed as degradation of GSPT1 at upto 300 nM by Western blot analysis; type: cell-based
U-937 [14] = assay: Induction of apoptosis in human U-937 cells assessed as viable cells at 30 nM measured after 24 hr by Annexin V-FITC/7AAD staining based flow cytometry (reference value: 93.55%); type: functional; conditions: read-out: Activity
U-937 [15] = assay: Induction of cell cycle arrest in human U-937 cells assessed as accumulation of cells at G2/M phase at 100 nM measured after 24 hrs by propidium iodide staining based flow cytometry analysis (reference value: 32.33%); type: functional
[16] = Downregulation of RNT2 level in human U-937 cells assessed as fold change at 0.1 uM measured after 6 hrs; type: functional
[17] = target: T1, Protein cereblon/Eukaryotic peptide chain release factor GTP-binding subunit ERF3A (Homo sapiens); assay: PROTAC activity at CRBN/GSPT1 in human U-937 cells assessed as increase in ubiquitination of GSPT1 at 100 nM preincubated with MG-132 for 2 hrs followed by compound treatment and measured after 24 hrs by coimmunoprecipitation analysis; type: cell-based
U-937 [18] = assay: Induction of apoptosis in human U-937 cells assessed as necrotic cells at 30 nM measured after 24 hr by Annexin V-FITC/7AAD staining based flow cytometry (reference value: 3.52%); type: functional
U-937 [19] = assay: Downregulation of cyclin B1 level in human U-937 cells measured after 24 hrs by Western blot analysis; type: functional, cell-based; conditions: dose 10-100 nM
[20] = target: T1, Protein cereblon/Eukaryotic peptide chain release factor GTP-binding subunit ERF3A (Homo sapiens); assay: PROTAC activity at CRBN/GSPT1 in human U-937 cells assessed as induction of GSPT1 degradation preincubated with MG132 for 2 hrs followed by compound addition and measured after 6 hrs by Western blot analysis; type: cell-based
[21] = target: Cereblon/Ikaros (Homo sapiens) (UniProt Q96SW2+Q13422); assay: PROTAC activity at CRBN/IKZF1 in human U-937 cells at upto 300 nM by Western blot analysis; type: cell-based
[22] = Downregulation of K2C1 level in human U-937 cells assessed as fold change at 0.1 uM measured after 6 hrs; type: functional
U-937 [23] = assay: Upregulation of cleaved caspase-3 level in human U-937 cells measured after 24 hrs by Western blot analysis; type: functional, cell-based; conditions: dose 10-100 nM
[24] = target: Protein cereblon/Zinc finger protein Aiolos (Homo sapiens) (UniProt Q96SW2+Q9UKT9); assay: PROTAC activity at CRBN/IKZF3 in human U-937 cells at upto 300 nM; type: cell-based
Sequence of Protein cereblon/Zinc finger protein Aiolos (Homo sapiens) (Q96SW2 whole entry, looked up): as above
Sequence of Protein cereblon/Zinc finger protein Aiolos (Homo sapiens) (Q9UKT9 whole entry, looked up): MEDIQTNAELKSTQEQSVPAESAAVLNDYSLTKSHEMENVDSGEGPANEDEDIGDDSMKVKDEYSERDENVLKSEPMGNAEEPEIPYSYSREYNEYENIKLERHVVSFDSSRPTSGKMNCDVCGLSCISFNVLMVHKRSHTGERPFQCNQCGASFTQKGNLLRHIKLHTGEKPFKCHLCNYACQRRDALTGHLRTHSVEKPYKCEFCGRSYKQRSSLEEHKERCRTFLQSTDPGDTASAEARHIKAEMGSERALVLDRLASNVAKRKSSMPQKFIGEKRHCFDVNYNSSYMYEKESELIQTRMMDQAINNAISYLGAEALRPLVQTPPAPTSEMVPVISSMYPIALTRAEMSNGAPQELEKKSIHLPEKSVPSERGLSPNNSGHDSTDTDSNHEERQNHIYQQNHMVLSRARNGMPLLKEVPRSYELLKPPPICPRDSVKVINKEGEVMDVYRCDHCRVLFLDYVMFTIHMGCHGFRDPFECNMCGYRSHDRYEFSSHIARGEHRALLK

[25] = target: T1, Protein cereblon/Eukaryotic peptide chain release factor GTP-binding subunit ERF3A (Homo sapiens); assay: PROTAC activity at CRBN/GSPT1 in human U-937 cells assessed as degradation of GSPT1 at 300 nM measured after 6 hrs by Western blot analysis relative to control; type: cell-based
U-937 [26] = assay: Antiproliferative activity against human U-937 cells measured after 72 hrs by CCK-8 method; type: functional, cell-based; conditions: U-937, 72 h
U-937 [27] = assay: Induction of apoptosis in human U-937 cells assessed as early apoptotic cells at 10 nM measured after 24 hr by Annexin V-FITC/7AAD staining based flow cytometry (reference value: 1.44%); type: functional
U-937 [28] = assay: Induction of apoptosis in human U-937 cells assessed as early apoptotic cells at 30 nM measured after 24 hr by Annexin V-FITC/7AAD staining based flow cytometry (reference value: 1.44%); type: functional
[29] = target: Cereblon/Casein kinase I alpha (Homo sapiens) (UniProt P48729+Q96SW2); assay: PROTAC activity at CRBN/CK1alpha in human U-937 cells at upto 300 nM by Western blot analysis; type: cell-based
Sequence of Cereblon/Casein kinase I alpha (Homo sapiens) (P48729 2-337 limits assumed): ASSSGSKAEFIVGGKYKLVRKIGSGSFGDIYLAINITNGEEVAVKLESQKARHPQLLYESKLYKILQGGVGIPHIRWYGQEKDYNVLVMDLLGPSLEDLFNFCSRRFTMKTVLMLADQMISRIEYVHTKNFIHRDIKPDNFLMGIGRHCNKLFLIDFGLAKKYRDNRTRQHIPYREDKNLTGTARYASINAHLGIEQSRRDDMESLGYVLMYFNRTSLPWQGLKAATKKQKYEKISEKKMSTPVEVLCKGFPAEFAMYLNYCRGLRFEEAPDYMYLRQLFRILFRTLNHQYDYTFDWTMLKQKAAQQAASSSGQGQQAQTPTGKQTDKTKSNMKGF
Sequence of Cereblon/Casein kinase I alpha (Homo sapiens) (Q96SW2 whole entry partner): as the sequence (Q96SW2 whole entry, looked up) above

[30] = Downregulation of K1C10 level in human U-937 cells assessed as fold change at 0.1 uM measured after 6 hrs; type: functional
[31] = Cmax in oral dosed Sprague-Dawley rat; type: ADME, organism-based; conditions: in vivo
[32] = target: T1, Protein cereblon/Eukaryotic peptide chain release factor GTP-binding subunit ERF3A (Homo sapiens); assay: PROTAC activity at CRBN/GSPT1 in human U-937 cells assessed as induction of GSPT1 degradation preincubated with MLN4924 for 2 hrs followed by compound addition and measured after 6 hrs by Western blot analysis; type: cell-based
[33] = target: T1, Protein cereblon/Eukaryotic peptide chain release factor GTP-binding subunit ERF3A (Homo sapiens); assay: PROTAC activity at CRBN/GSPT1 in human MOLT-4 cells assessed as degradation of GSPT1 at upto 300 nM by Western blot analysis; type: cell-based
[34] = target: T1, Protein cereblon/Eukaryotic peptide chain release factor GTP-binding subunit ERF3A (Homo sapiens); assay: (§1) PROTAC activity at CRBN/GSPT1 in human U-937 cells assessed as degradation of GSPT1 measured after 6 hrs by Western blot analysis; type: cell-based; conditions: dose <= 300.0 nM
[35] = target: Protein cereblon/Eukaryotic peptide chain release factor GTP-binding subunit ERF3A (Homo sapiens, UniProt P15170+Q96SW2); assay: as §1; type: cell-based
Sequence of Protein cereblon/Eukaryotic peptide chain release factor GTP-binding subunit ERF3A (Q96SW2 whole entry): as the sequence (Q96SW2 whole entry, looked up) above
Sequence of Protein cereblon/Eukaryotic peptide chain release factor GTP-binding subunit ERF3A (P15170 whole entry): as the sequence (P15170 whole entry, looked up) above

[36] = target: T1, Protein cereblon/Eukaryotic peptide chain release factor GTP-binding subunit ERF3A (Homo sapiens); assay: PROTAC activity at CRBN/GSPT1 in human U-937 cells assessed as half life measured upto 24 hrs in presence of cycloheximide by Western blot analysis; type: cell-based
[37] = Downregulation of SYIC level in human U-937 cells assessed as fold change at 0.1 uM measured after 6 hrs; type: functional
[38] = Downregulation of GSPT1 level in human U-937 cells assessed as fold change at 0.1 uM measured after 6 hrs; type: functional
U-937 [39] = assay: Induction of apoptosis in human U-937 cells assessed as early apoptotic cells at 100 nM measured after 24 hr by Annexin V-FITC/7AAD staining based flow cytometry (reference value: 1.44%); type: functional
U-937 [40] = assay: Induction of apoptosis in human U-937 cells assessed as late apoptotic cells at 100 nM measured after 24 hr by Annexin V-FITC/7AAD staining based flow cytometry (reference value: 1.49%); type: functional
U-937 [41] = assay: Induction of cell cycle arrest in human U-937 cells assessed as accumulation of cells at S phase at 100 nM measured after 24 hrs by propidium iodide staining based flow cytometry analysis (reference value: 6.38%); type: functional
[42] = Cmax in ip dosed Sprague-Dawley rat; type: ADME, organism-based; conditions: in vivo
U-937 [43] = assay: Induction of apoptosis in human U-937 cells assessed as necrotic cells at 100 nM measured after 24 hr by Annexin V-FITC/7AAD staining based flow cytometry (reference value: 3.52%); type: functional
MV4-11 = assay: Antiproliferative activity against human MV4-11 cells measured after 72 hrs by CCK-8 method; type: functional, cell-based; conditions: MV4-11, 72 h
U-937 [44] = assay: Downregulation of CDK6 level in human U-937 cells measured after 24 hrs by Western blot analysis; type: functional, cell-based; conditions: dose 10-100 nM
U-937 [45] = assay: Induction of cell cycle arrest in human U-937 cells assessed as accumulation of cells at G2/M phase at 10 nM measured after 24 hrs by propidium iodide staining based flow cytometry analysis (reference value: 32.33%); type: functional
[46] = Downregulation of SEC13 level in human U-937 cells assessed as fold change at 0.1 uM measured after 6 hrs; type: functional
U-937 [47] = assay: Induction of apoptosis in human U-937 cells assessed as viable cells at 10 nM measured after 24 hr by Annexin V-FITC/7AAD staining based flow cytometry (reference value: 93.55%); type: functional; conditions: read-out: Activity
U-937 [48] = assay: Upregulation of caspase-9 level in human U-937 cells measured after 24 hrs by Western blot analysis; type: functional, cell-based; conditions: dose 10-100 nM
[49] = Downregulation of AMPN level in human U-937 cells assessed as fold change at 0.1 uM measured after 6 hrs; type: functional
[50] = AUC (0 to t) in ip dosed Sprague-Dawley rat; type: ADME, organism-based; conditions: in vivo
MOLT-4 = assay: Antiproliferative activity against human MOLT-4 cells measured after 72 hrs by CCK-8 method; type: functional, cell-based; conditions: MOLT-4, 72 h
U-937 [51] = assay: Induction of apoptosis in human U-937 cells assessed as viable cells at 100 nM measured after 24 hr by Annexin V-FITC/7AAD staining based flow cytometry (reference value: 93.55%); type: functional; conditions: read-out: Activity
U-937 [52] = assay: Induction of cell cycle arrest in human U-937 cells assessed as accumulation of cells at S phase at 10 nM measured after 24 hrs by propidium iodide staining based flow cytometry analysis (reference value: 6.38%); type: functional
U-937 [53] = assay: Induction of cell cycle arrest in human U-937 cells assessed as accumulation of cells at G0/G1 phase at 100 nM measured after 24 hrs by propidium iodide staining based flow cytometry analysis (reference value: 61.09%); type: functional
[54] = Downregulation of TIM9 level in human U-937 cells assessed as fold change at 0.1 uM measured after 6 hrs; type: functional
[55] = Downregulation of SCAM2 level in human U-937 cells assessed as fold change at 0.1 uM measured after 6 hrs; type: functional

- AUC(0-t) [4]: 1050 ng·h/mL
- Activity [7]: Active
- half-life [11]: 1.25 h
- Activity [13]: Active
- Activity [17]: Active
- Activity [20]: inactive
- Activity [21]: inactive
- Activity [24]: inactive
- Emax [25]: 81.7%
- IC50 (U-937 [26]): 19 nM
- Activity [29]: inactive
- Cmax [31]: 671 ng/mL
- Activity [32]: inactive
- Activity [33]: Active
- Activity [34]: Dose-Dependent Effect
- EC50 [35]: 35 nM
- T1/2 [36]: 6.3 h
- Cmax [42]: 4270 ng/mL
- IC50 (MV4-11): 27 nM
- AUC(0-t) [50]: 8160 ng·h/mL
- IC50 (MOLT-4): 6 nM
Compound: COCCN(C)Cc1cc(NC(=O)CCc2ccc3c(c2)C(=O)N(C2CCC(=O)NC2=O)C3)cc(Cl)c1C (stereo not drawn)
- Activity (U-937 [1]): 50.22%
- log(activity) [2]: -3.32
- Activity (U-937 [3]): 14.45%
- Activity (U-937 [5]): 2.34%
- Activity (U-937 [6]): 9.99%
- Activity (U-937 [8]): 63.89%
- Activity (U-937 [9]): 2.73%
- log(activity) [10]: -3.32
- Activity (U-937 [12]): 26.07%
- viability at 0.03 µM (U-937 [14]): 65.5%
- Activity (U-937 [15]): 20.68%
- log(activity) [16]: -3.36
- Activity (U-937 [18]): 5.84%
- Activity (U-937 [19]): Dose-Dependent Effect
- log(activity) [22]: -5.03
- Activity (U-937 [23]): Dose-Dependent Effect
- Activity (U-937 [27]): 1.9%
- Activity (U-937 [28]): 14.2%
- log(activity) [30]: -9.04
- log(activity) [37]: -3.32
- log(activity) [38]: -3.32
- Activity (U-937 [39]): 23.01%
- Activity (U-937 [40]): 27.48%
- Activity (U-937 [41]): 6.73%
- Activity (U-937 [43]): 5.5%
- Activity (U-937 [44]): Dose-Dependent Effect
- Activity (U-937 [45]): 31.72%
- log(activity) [46]: -3.32
- viability at 0.01 µM (U-937 [47]): 93.2%
- Activity (U-937 [48]): Dose-Dependent Effect
- log(activity) [49]: -3.63
- viability at 0.1 µM (U-937 [51]): 44.9%
- Activity (U-937 [52]): 8.87%
- Activity (U-937 [53]): 71.09%
- log(activity) [54]: -3.32
- log(activity) [55]: -3.32

- EC50 [35]: 18 nM
Compound: Cc1ccc(NC(=O)CCc2ccc3c(c2)C(=O)N(C2CCC(=O)NC2=O)C3)cc1Cl (stereo not drawn)
